Our source for the antiviral efficacy values is patent US20240307434A1, “USE OF LUTETIUM SALT COMPOUNDS FOR ANTIVIRAL EFFECT” (priority 2022, published 2024).

The subject of this assay is Adenovirus, Poliovirus, Herpes Simplex Type 1 and Herpes Simplex Type 2, Coronavirus and Norovirus strains.

For lutetium Borate [LuBO3], the antiviral efficacy result is given as “exhibit antiviral efficacy”.
